In paper PMC6005845 (Frontiers in Cardiovascular Medicine, 2018):
Like-named read-outs stand apart in the source and are kept apart here.

Key:
[1] = Pharmacokinetic analysis and plasma drug concentrations (LC-MS/MS); type: in vivo, APOE*3Leiden.CETP mice; details: APOE*3Leiden.CETP, mouse, plasma; for AUC(0-t): read-out: AUC0–24
Description: Animal experiments were approved by the Institutional Animal Care and Use Committee of The Netherlands Organization for Applied Research under registration number 3557.
PK analysis and plasma drug concentrations
EDTA plasma samples collected during the 24-hour PK study and at week 16 of the (cardio)vascular risk factor-atherosclerosis study were subsequently stored at -80°C until analysis. Thawed plasma samples (50μL) were de-proteinized with two volumes of acetonitrile containing an appropriate src-inhibitor chemotype as internal standard for each analyte.
Following deproteinization, a 5μL portion of clear supernatant was then subjected to solvent gradient separation in an Agilent 1100 series HPLC system interfaced to a Micromass triple-quadrupole mass spectrometer, which was operated in the positive ion electrospray MRM mode to obtain daughter ions for quantitation: Ion transitions used for quantitation were as follows: […]
curves ranging from 1 nM to 6 uM were fitted with a quadratic regression weighted by reciprocal concentration (1/x). LLOQ for the purposes of this assay was between 1 and 2 nM for all compounds analyzed. QC samples at three levels in the range of the standard curve were used to accept individual analytical sets, and all results were calculated as the mean of triplicate determinations ± standard error. Tmax, Cmax and AUCs were calculated using the software Berkeley Madonna (version 8.3.18). […]

[2] = system: APOE*3Leiden.CETP mice; experiment: Plasma cholesterol, triglycerides and HDL-C in the atherosclerosis study; type: in vivo; details: for change of HDL-C vs control: at 16 weeks of treatment; for reduction of average plasma cholesterol compared to control: p < 0.001
Description: Pouwer et al Supplementary material plasma lipids and a minimal effect of treatment of 30%, resulting in 15 animals per group.
Animal experiments were approved by the Institutional Animal Care and Use Committee of The Netherlands Organization for Applied Research under registration number 3557. […]
Biochemical analyses and blood pressure
EDTA plasma samples were collected throughout the study. Plasma cholesterol and triglycerides were determined every 4 weeks using enzymatic kits (Roche/Hitachi) according […]
(§1) HDL-C was measured after precipitation as described previously20. The distribution of […]
(§2) protein liquid chromatography (FPLC)9. The inflammatory markers SAA, E-selectin and MCP- […]
(§3) according to the manufacturer’s instruction. Plasma ALT and AST were determined using a […]
group at 2 and 15 weeks18. […]

[3] = system: MCP-1; experiment: Plasma MCP-1 ELISA; type: in vivo, APOE*3Leiden.CETP mice; details: for change of MCP-1 relative to baseline (T = 0 weeks): p < 0.001; for MCP-1: after 16 weeks of treatment
From the text: (§4) Pouwer et al Supplementary material […]
(§5) The inflammatory markers SAA, E-selectin and MCP-
(§6) according to the manufacturer’s instruction. […]

[4] = system: E-selectin; experiment: Plasma E-selectin ELISA; type: in vivo, APOE*3Leiden.CETP mice; details: after 16 weeks of treatment
From the text: as §4, §5, §6

[5] = system: factor VIIa; experiment: Factor VIIa activity in plasma; type: in vivo, APOE*3Leiden.CETP mice; details: 30 mg/kg QD, at 4 weeks, p < 0.001
From the text: (§7) Pouwer et al Supplementary material
(§8) Dickinson, Franklin Lakes, New Jersey, USA). After 12 weeks of treatment, peripheral blood
(§9) CD11b+/Ly6Chigh monocytes. The following conjugated monoclonal antibodies, all from
(§10) Coagulation factor VII and VIIa
(§11) (Diagnostica Stago Inc. Parsippany, N J). For the determination of total clotting FVII an one
(§12) Histological assessment of lung morphology and atherosclerosis
(§13) The caudal lung was cross
(§14) direction of the aortic arch.

[6] = QD, cited from earlier work
[7] = system: APOE*3Leiden.CETP mice; experiment: Hepatic lipid content by HPTLC; type: in vivo; details: 16 weeks
Description: as §7, §1, §2, §3
(§15) group at 2 and 15 weeks18.
(§16) Straubenhardt, Germany).21
(§17) BAL and urinary albumin:creatinin […]
(§18) catheter to collect broncho-alveolar lavage (BAL) fluid. Protein and albumin content in BAL […]
(§19) the mouse albumin ELISA kit (ALPCO, Salem, USA). Urinary albumin and creatinin levels […]
(§20) kit (Exocell, Philadelphia, USA) according to manufacturer’s instruction.

[8] = system: APOE*3Leiden.CETP mice; experiment: Lung vascular integrity: histology, wet/dry weight ratio, protein in BAL fluid; type: in vivo
Description: as §7, §1, §2, §3, §15, §16, §17, §18, §19, §20
Dickinson, Franklin Lakes, New Jersey, USA). After 12 weeks of treatment, peripheral blood […]
CD11b+/Ly6Chigh monocytes. The following conjugated monoclonal antibodies, all from […]
as §10
(Diagnostica Stago Inc. Parsippany, N J). For the determination of total clotting FVII an one […]
Histological assessment of lung morphology and atherosclerosis […]
The caudal lung was cross […]
as §14

[9] = system: factor VII; experiment: Total factor VII coagulant activity in plasma; type: in vivo, APOE*3Leiden.CETP mice
From the text: as §7, §8, §9, §10, §11, §12, §13, §14

[10] = for Body weight / Food intake: after 16 weeks; for Food intake: per cage
From the text: Female APOE*3Leiden.CETP transgenic mice (9 to 14 weeks of age) from the SPF breeding stock at TNO-Metabolic Health Research (TNO-Leiden) were used in this study. Females were used because they are more responsive to dietary cholesterol and fat than males. APOE*3Leiden females have a higher VLDL production ([20]) than males resulting in higher plasma total cholesterol (TC) and triglyceride (TG) levels and more pronounced development of atherosclerosis ([21, 22]). […] Body weight, food intake and clinical signs of behavior were monitored regularly during the study. Animal experiments were approved by the Institutional Animal Care and Use Committee of The Netherlands Organization for Applied Research under registration number 3557.

[11] = system: CML; details: cited from earlier work
[12] = po, repeated dose, QD, 10 mg/kg, after 16 weeks
[13] = po, repeated dose, QD, 30 mg/kg, after 16 weeks
[14] = po, repeated dose, QD, 3 mg/kg, after 16 weeks
[15] = po, repeated dose, BID, 150 mg/kg, after 16 weeks

Structure (SMILES): Cc1cn(-c2cc(NC(=O)c3ccc(C)c(Nc4nccc(-c5cccnc5)n4)c3)cc(C(F)(F)F)c2)cn1 [Nilotinib, nilotinib]
- Cmax [1, 12]: 2300 ng/mL
- Tmax [1, 12]: 3.17 h
- AUC(0-t) [1, 12]: 24600 ng·h/mL
- Cmax [1, 13]: 6890 ng/mL
- Tmax [1, 13]: 3.17 h
- AUC(0-t) [1, 13]: 73800 ng·h/mL
- Cmax ([1]; single oral gavage, 50 mg/kg): 11000 ng/mL
- Tmax ([1]; single oral gavage, 50 mg/kg): 3.26 h
- AUC(0-t) ([1]; single oral gavage, 50 mg/kg): 117000 ng·h/mL
- effect on plasma lipid levels ([2]; 10 and 30 mg/kg QD, 16 week study, vs control): no significant effect
- change of MCP-1 relative to baseline (T = 0 weeks) ([3]; 10 mg/kg QD, 16 weeks): +220%
- MCP-1 ([3]; 10 mg/kg QD): 144 ± 82 pg/mL
- change of MCP-1 relative to baseline (T = 0 weeks) ([3]; 30 mg/kg QD, 16 weeks): +160%
- MCP-1 ([3]; 30 mg/kg QD): 117 ± 60 pg/mL
- E-selectin ([4]; 10 mg/kg QD): 79 ± 23 ng/mL
- E-selectin ([4]; 30 mg/kg QD): 99 ± 17 ng/mL
- increase of the activity of FVIIa in plasma vs control [5]: 82%
- AUC0–24 ([6]; CML-patients, repeated dose, dose 400–1,200 (mg)): 36.0 ± 11.8 µg·h/mL
- AUC0–24 ([6]; healthy subjects, single, dose 400 (mg)): 14.7 ± 5.0 µg·h/mL

Structure (SMILES): Cc1ccc(C(=O)Nc2ccc(CN3CCN(C)CC3)c(C(F)(F)F)c2)cc1C#Cc1cnc2cccnn12 [Ponatinib, ponatinib]
- Cmax [1, 14]: 140 ng/mL
- Tmax [1, 14]: 6.72 h
- AUC(0-t) [1, 14]: 2430 ng·h/mL
- Cmax [1, 12]: 460 ng/mL
- Tmax [1, 12]: 6.73 h
- AUC(0-t) [1, 12]: 8110 ng·h/mL
- Cmax ([1]; single oral gavage, 5 mg/kg): 190 ng/mL
- Tmax ([1]; single oral gavage, 5 mg/kg): 8 h
- AUC(0-t) ([1]; single oral gavage, 5 mg/kg): 3240 ng·h/mL
- change of HDL-C vs control ([2]; 3 mg/kg QD (low dose), p = 0.003): −30%
- reduction of average plasma cholesterol compared to control ([2]; 3 mg/kg QD, 16 week study): 37%
- change of HDL-C vs control ([2]; 10 mg/kg QD (high dose), p = 0.016): −25%
- reduction of average plasma cholesterol compared to control ([2]; 10 mg/kg QD, 16 week study): 44%
- change of hepatic cholesterol ester content vs control ([7]; 3 mg/kg QD (low dose), p < 0.001): −49%
- change of hepatic triglyceride content vs control ([7]; 3 mg/kg QD (low dose), p = 0.048): −32%
- change of hepatic cholesterol ester content vs control ([7]; 10 mg/kg QD (high dose), p < 0.001): −61%
- change of hepatic triglyceride content vs control ([7]; 10 mg/kg QD (high dose), p = 0.005): −43%
- change of hepatic free cholesterol content vs control ([7]; 10 mg/kg QD, p = 0.007): −21%
- decrease of the amount of protein in BAL fluid ([8]; 3 mg/kg QD, week 16, p = 0.029): 51%
- decrease of the amount of protein in BAL fluid ([8]; 10 mg/kg QD, week 16, p = 0.041): 47%
- MCP-1 ([3]; 3 mg/kg QD): 78 ± 29 pg/mL
- MCP-1 ([3]; 10 mg/kg QD): 92 ± 68 pg/mL
- change of total factor VII coagulant activity (FVII) in plasma vs control ([9]; 3 mg/kg QD, after 12 weeks, p = 0.07): +28%
- change of total factor VII coagulant activity (FVII) in plasma vs control ([9]; 10 mg/kg QD, after 4 weeks, p < 0.001): +265%
- mice that died during blood pressure measurements ([10]; 3 mg/kg QD, t = 15 weeks): Two
- Body weight ([10]; 3 mg/kg): 22.5 ± 2.3 gram
- Food intake ([10]; 3 mg/kg): 2.4 gram/mouse/day
- Body weight ([10]; 10 mg/kg): 22.3 ± 2.8 gram
- Food intake ([10]; 10 mg/kg): 2.3 gram/mouse/day
- AUC0–24 ([6]; CML-patients, repeated dose, dose 15–60 (mg)): 1.3 µg·h/mL
- AUC0–24 ([6]; CML-patients, single, dose 60 (mg)): 0.7 ± 0.4 µg·h/mL

Structure (SMILES): Cc1ccc(NC(=O)c2ccc(CN3CCN(C)CC3)cc2)cc1Nc1nccc(-c2cccnc2)n1 [Imatinib, imatinib]
- Cmax [1, 15]: 11100 ng/mL
- Tmax [1, 15]: 2.47 h
- AUC(0-t) [1, 15]: 78100 ng·h/mL
- Cmax ([1]; single oral gavage, 100 mg/kg): 5290 ng/mL
- Tmax ([1]; single oral gavage, 100 mg/kg): 2.28 h
- AUC(0-t) ([1]; single oral gavage, 100 mg/kg): 32800 ng·h/mL
- reduction of average plasma cholesterol compared to control ([2]; 150 mg/kg BID, 16 week study): 69%
- reduction of average plasma triglyceride levels compared to control ([2]; 150 mg/kg BID, 16 week study, p = 0.019): 36%
- change of hepatic cholesterol ester content vs control ([7]; 150 mg/kg BID, p = 0.001): −30%
- effect on plasma MCP-1 ([3]; 150 mg/kg BID, 16 weeks): None of the inflammatory markers were significantly altered
- MCP-1 ([3]; 150 mg/kg BID): 54 ± 44 pg/mL
- relapses in treated patients [11]: up to 17%
